The values below come from paper PMC10693084, “Novel 8-Methoxycoumarin-3-Carboxamides with potent anticancer activity against liver cancer via targeting caspase-3/7 and β-tubulin polymerization” (BMC Chemistry, 2023).

In experiment [1] the test system is WI 38 normal cells. Nature of the experiment: MTT cytotoxicity assay against WI 38 normal cells. Format: cell-based. As to conditions: Homo sapiens, WI 38 normal lung cells, 24 h treatment. The method, then:
Following the incubation period, the cells were subjected to various concentrations of the prepared molecules and subsequently incubated for a duration of 24 h. […] Subsequently, a volume of 100 μL of dimethyl sulfoxide (DMSO) was introduced into each well in order to facilitate the dissolution of the purple formazan that had been generated. The quantification of the color intensity of the formazan product, which serves as an indicator of the cellular growth condition, is performed by employing an ELISA plate reader set at a wavelength of 570 nm. The experimental conditions were implemented with a minimum of three replicates, and the experiments were conducted on at least three separate occasions.

The subject of experiment [2] is caspase-3/7. Description: Caspase-3/7 green flow cytometric assay in HepG2 cells. In kind it is cell-based, human. As to conditions: HepG2 cells treated with compound. The text has this:
Caspase-3 is a cysteine-aspartic protease protein that facilitates the enzymatic cleavage of specific target proteins. It consists of two subunits, specifically a 12-kDa subunit and a 17-kDa subunit, which are characterized by the presence of three and five thiol functions, respectively. […] The crucial involvement of the terminal caspase-3/7 activation is observed in the initiation of apoptosis and subsequent cell demise in neoplastic cells. To gain more insight into the apoptotic mode of action for compound 5, we assessed the active caspase-3/7 levels in HepG2 cells utilizing a green flow cytometric assay. […] Compared to the control group of untreated HepG2 cells, there was a remarkable 5.6-fold rise in the levels of active Caspase-3/7 upon treatment with compound 5. […] These findings provide valuable insights into the potential mechanism of action of compound 5 as an anti-cancer agent. Activation of Caspase-3/7 is a pivotal step in the apoptotic pathway, leading to the programmed destruction of cancer cells. […]
The HepG2 cell line was subjected to treatment with compound 5, and subsequently, an analysis was conducted using the Cell Event caspase-3/7 green flow assay. […] Subsequently, the cells were assessed utilizing the BD FACS CALIBER flow cytometer.

Experiment [3] addresses T1, β-tubulin (Homo sapiens, UniProt P07437).
T1 construct: impact of compound 5 on β-tubulin polymerization activity in HepG2 cells; endogenous in cells; host or cells: HepG2
Description: β-tubulin polymerization activity (TUB β ELISA, 450 nm) in HepG2 cells. Format: cell-based. As to conditions: HepG2, 0.9 µM, 24 h. The text has this: Microtubules are widely recognized as a significant target for anti-cancer therapy due to their pivotal involvement in cellular division and the preservation of cellular morphology. The impact of numerous anti-cancer agents is achieved through their ability to disrupt microtubule dynamics. This disruption ultimately results in the deregulation of mitotic spindles, leading to cell cycle arrest in cancer cells and subsequently inducing apoptosis. Toward this end, we further aimed to assess investigated the impact of compound 5 on β-tubulin polymerization activity in HepG2 cells. Thus, HepG2 cells were treated with compound 5 at (0.9 µM) for a duration of 24 h and the activity of β-tubulin polymerization was explored using spectrophotometry at 450 nm. […] These findings indicate that compound 5 interferes with the process of microtubule assembly, thereby disrupting the proper formation of mitotic spindles. […]
Dulbecco's Modified Eagle Medium (DMEM) (Invitrogen/Life Technologies) containing 10% fetal bovine serum (FBS) (Hyclone), 10 µg/mL of insulin (Sigma), and 1% penicillin–streptomycin was used for culturing the HepG2 cell line. […] This color change was then quantitatively measured using spectrophotometry at a specific wavelength of 450 nm ± 10 nm. […]

T1 sequence (P07437 whole entry): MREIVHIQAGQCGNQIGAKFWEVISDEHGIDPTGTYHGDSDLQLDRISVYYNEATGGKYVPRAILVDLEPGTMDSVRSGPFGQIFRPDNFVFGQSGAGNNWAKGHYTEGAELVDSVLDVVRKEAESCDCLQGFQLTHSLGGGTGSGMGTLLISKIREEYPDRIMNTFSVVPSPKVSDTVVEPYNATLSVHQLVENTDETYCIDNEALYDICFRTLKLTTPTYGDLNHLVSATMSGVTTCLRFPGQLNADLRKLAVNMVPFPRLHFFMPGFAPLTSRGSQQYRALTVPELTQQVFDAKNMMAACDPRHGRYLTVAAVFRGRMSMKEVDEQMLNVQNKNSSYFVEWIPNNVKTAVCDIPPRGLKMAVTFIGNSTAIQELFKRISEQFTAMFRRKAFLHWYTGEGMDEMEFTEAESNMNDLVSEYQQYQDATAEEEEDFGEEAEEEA
T1 sequence (P68363 whole entry partner): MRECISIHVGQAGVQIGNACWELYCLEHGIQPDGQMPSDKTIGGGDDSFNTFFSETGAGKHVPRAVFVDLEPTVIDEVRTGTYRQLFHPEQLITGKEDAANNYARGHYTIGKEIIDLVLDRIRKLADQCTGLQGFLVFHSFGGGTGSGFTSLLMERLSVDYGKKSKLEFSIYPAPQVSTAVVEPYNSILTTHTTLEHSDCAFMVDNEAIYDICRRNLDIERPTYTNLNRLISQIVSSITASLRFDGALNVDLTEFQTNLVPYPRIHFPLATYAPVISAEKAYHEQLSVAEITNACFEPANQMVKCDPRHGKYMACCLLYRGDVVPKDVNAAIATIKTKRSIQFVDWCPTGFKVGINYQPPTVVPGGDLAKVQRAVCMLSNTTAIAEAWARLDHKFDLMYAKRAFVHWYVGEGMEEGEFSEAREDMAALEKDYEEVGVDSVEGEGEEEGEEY

`COc1ccc(Br)c2cc(C(N)=O)c(=O)oc12` [Compound 5, 5-Bromo-8-methoxycoumarin-3-carboxamide] showed an IC50 in experiment [1] of 24.1 ± 1.46 µM. Moreover, the “rise in levels of active Caspase-3/7 vs untreated HepG2 cells” value in experiment [2] is recorded as 5.6 fold. The “reduction in the concentration of β-tubulin polymerization vs untreated HepG2 cells” value in experiment [3] is on record as “threefold”.
